# Target: human Nav1.7 (Homo sapiens (Human), UniProt Q15858)
# Assay: FLIPR or FLIPR TETRA sodium dye assay with KCl and test article pre-incubation
# Type: cell-based
# Details: read-out: Nav1.7 IC50 (μM) ± SEM
# Chain of human Nav1.7 (Q15858 other isoform, or with tags, fused parts or gaps): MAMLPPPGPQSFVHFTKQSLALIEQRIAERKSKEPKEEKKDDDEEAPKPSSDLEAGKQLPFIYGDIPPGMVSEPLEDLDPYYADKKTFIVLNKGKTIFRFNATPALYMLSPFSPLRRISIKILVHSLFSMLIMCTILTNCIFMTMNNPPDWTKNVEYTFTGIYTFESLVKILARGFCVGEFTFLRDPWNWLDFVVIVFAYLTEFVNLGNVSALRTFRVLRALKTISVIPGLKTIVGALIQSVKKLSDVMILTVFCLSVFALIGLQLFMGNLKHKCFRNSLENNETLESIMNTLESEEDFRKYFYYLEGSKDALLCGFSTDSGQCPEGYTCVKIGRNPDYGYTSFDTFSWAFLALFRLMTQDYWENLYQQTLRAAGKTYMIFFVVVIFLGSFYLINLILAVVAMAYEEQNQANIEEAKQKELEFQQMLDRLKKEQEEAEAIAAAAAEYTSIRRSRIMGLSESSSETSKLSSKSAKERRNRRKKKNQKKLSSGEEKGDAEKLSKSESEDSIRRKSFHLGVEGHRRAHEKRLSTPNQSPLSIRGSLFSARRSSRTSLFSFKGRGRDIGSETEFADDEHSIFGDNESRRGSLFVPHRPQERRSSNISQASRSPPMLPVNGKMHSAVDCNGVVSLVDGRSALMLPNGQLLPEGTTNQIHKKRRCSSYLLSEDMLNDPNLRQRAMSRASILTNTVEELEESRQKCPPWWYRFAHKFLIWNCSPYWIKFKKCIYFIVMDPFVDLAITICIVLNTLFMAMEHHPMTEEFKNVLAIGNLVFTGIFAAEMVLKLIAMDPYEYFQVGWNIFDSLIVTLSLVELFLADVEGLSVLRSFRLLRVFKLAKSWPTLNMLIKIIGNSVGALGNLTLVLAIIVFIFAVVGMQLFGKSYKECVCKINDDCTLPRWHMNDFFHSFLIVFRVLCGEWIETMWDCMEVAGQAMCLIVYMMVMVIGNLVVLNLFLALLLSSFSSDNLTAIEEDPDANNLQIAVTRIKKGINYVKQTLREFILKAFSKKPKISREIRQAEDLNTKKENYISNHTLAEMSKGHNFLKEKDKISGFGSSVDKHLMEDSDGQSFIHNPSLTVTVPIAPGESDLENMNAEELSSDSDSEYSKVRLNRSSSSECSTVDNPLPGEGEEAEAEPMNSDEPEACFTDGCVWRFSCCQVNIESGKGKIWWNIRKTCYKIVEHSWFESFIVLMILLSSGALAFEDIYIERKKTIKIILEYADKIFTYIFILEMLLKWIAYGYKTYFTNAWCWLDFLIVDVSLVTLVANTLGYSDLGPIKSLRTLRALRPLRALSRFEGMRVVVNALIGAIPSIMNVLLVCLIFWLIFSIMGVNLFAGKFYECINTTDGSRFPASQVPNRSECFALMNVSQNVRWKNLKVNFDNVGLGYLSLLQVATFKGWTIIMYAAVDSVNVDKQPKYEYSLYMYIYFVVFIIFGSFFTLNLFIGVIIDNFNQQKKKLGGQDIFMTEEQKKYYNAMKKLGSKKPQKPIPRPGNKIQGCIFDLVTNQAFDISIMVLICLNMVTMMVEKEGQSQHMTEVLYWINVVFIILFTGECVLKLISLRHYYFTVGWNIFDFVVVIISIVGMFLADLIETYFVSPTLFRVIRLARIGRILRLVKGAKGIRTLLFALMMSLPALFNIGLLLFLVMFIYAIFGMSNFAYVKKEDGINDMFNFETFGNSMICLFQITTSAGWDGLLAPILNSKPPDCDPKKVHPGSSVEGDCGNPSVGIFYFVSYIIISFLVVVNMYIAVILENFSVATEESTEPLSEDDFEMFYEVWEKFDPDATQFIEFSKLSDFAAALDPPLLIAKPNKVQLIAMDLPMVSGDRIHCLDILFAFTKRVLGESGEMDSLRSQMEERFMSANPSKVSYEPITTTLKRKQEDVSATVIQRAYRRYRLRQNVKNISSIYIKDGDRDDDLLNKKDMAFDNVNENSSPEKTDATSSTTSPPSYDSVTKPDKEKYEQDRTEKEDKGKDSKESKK
row,Compound,IC50
1,"CN(c1ccccc1)c1cc(C(=O)O)nc(-c2ccc(Oc3ccc(F)cc3)cc2)c1 [compound 114, 6-(4-(4-fluorophenoxy)phenyl)-4-(methyl(phenyl)amino)picolinic acid]",0.68 ± 0.6 µM
2,"N#Cc1ccc(Oc2ccc(-c3cccc([C@H](O)CO)n3)cc2)cc1 [compound 6, (S)-4-(4-(6-(1,2-dihydroxyethyl)pyridin-2-yl)phenoxy)benzonitrile]",0.27 ± 0.05 µM
3,"N#Cc1cc(Oc2ccc(-c3cccc(C(O)CO)n3)cc2)ccc1C(F)(F)F (centres unmarked) [compound 12, 5-(4-(6-(1,2-dihydroxyethyl)pyridin-2-yl)phenoxy)-2-(trifluoromethyl) benzonitrile]",0.89 ± 0.02 µM
4,"O=C1NCCN1CCNCc1cccc(-c2ccc(Oc3ncc(C(F)(F)F)cc3Cl)cc2)n1 [compound 66, 1-(2-(((6-(4-((3-chloro-5-(trifluoromethyl)pyridin-2-yl)oxy)phenyl)pyridin-2-yl)methyl)amino)ethyl) imidazolidin-2-one]",0.13 ± 0.03 µM
5,"O=S(=O)(Nc1ccc(F)cc1)c1ccc(-c2cccc([C@H](O)CO)n2)cc1 [compound 124, (S)-4-(6-(1,2-dihydroxyethyl)pyridin-2-yl)-N-(4-fluorophenyl) benzenesulfonamide]",2.5 ± 0.34 µM
6,"NC(=O)c1cc(O)cc(-c2ccc(Oc3ccc(F)cc3)cc2)n1 [compound 136, 6-(4-(4-fluorophenoxy)phenyl)-4-hydroxy picolinamide]",> 20 µM

# Same assay, conditions: recombinant human Nav1.7 in HEK293 cells; CoroNa Green sodium dye; veratridine + scorpion venom; read-out: Nav1.7 IC50 (μM) ± SEM
row,Compound,IC50
1,"NC(=O)c1cc([C@H](O)CO)cc(-c2ccc(Oc3ccc(C(F)(F)F)cc3)cc2)n1 [compound 30, (S)-4-(1,2-dihydroxyethyl)-6-(4-(4-(trifluoromethyl)phenoxy)phenyl) picolinamide]",0.24 ± 0.07 µM
2,"CS(=O)(=O)NCc1cc(C(N)=O)nc(-c2ccc(Oc3ccc(F)cc3)cc2)c1 [compound 50, 6-(4-(4-fluorophenoxy)phenyl)-4-(methylsulfonamido-methyl)picolinamide]",0.14 ± 0.03 µM
3,"O=C(NC(CO)CO)c1cc(-c2ccc(Oc3ccc(F)cc3)cc2)cc(Cl)n1 [compound 125, 6-chloro-N-(1,3-dihydroxypropan-2-yl)-4-(4-(4-fluorophenoxy)phenyl)picolinamide]",0.77 ± 0.13 µM
4,"O=C1NCCN1CCNCc1cccc(-c2ccc(Oc3ccc(C(F)(F)F)cc3)cc2)n1 [compound 61, 1-(2-(((6-(4-(4-(trifluoromethyl)phenoxy)phenyl)pyridin-2-yl)methyl)amino)ethyl)imidazolidin-2-one]",0.03 ± 0.01 µM
5,"NC(=O)c1cc(NCc2ccccn2)cc(-c2ccc(Oc3ccc(F)cc3)cc2)n1 [compound 47, 6-(4-(4-fluorophenoxy)phenyl)-4-((pyridin-2-ylmethyl)amino) picolinamide]",0.22 ± 0.06 µM
6,"CN(c1ccccc1)c1cc(-c2ccc(Oc3ccc(C(F)(F)F)cc3)cc2)cc(C(N)=O)n1 [compound 148, 6-(Methyl-phenyl-amino)-4-[4-(4-trifluoromethyl-phenoxy)phenyl]-pyridine-2-carboxylic acid amide]",0.25 ± 0.08 µM
7,"O=C(NCCN1CCCCC1)c1cc([C@H](O)CO)cc(-c2ccc(Oc3ccc(F)cc3)cc2)n1 [compound 42, (S)-4-(1,2-dihydroxyethyl)-6-(4-(4-fluorophenoxy)phenyl)-N-(2-(piperidin-1-yl)ethyl) picolinamide]",1.25 ± 0.15 µM
8,"OC[C@H](O)c1cccc(-c2ccc(Oc3ccc(C(F)(F)F)cn3)cc2)n1 [compound 23, (R)-1-(6-(4-((5-(trifluoromethyl)pyridin-2-yl)oxy)phenyl)pyridin-2-yl)ethane-1,2-diol]",4.89 ± 2.48 µM
9,"OC[C@@H](O)c1cccc(-c2ccc(Oc3ccc(C(F)(F)F)cn3)cc2)n1 [compound 24, (S)-1-(6-(4-((5-(trifluoromethyl)pyridin-2-yl)oxy)phenyl)pyridin-2-yl)ethane-1,2-diol]",6.49 ± 2.94 µM
10,"N#Cc1ccc(Oc2ccc(-c3cc([C@@H](O)CO)cc(C(N)=O)n3)cc2)cc1 [compound 38, (R)-6-(4-(4-cyanophenoxy)phenyl)-4-(1,2-dihydroxyethyl) picolinamide]",0.35 ± 0.07 µM
11,"NC(=O)c1cc([C@H](O)CO)cc(-c2ccc(-c3ccc(F)cc3)cc2)n1 [compound 154, 4-((S)-1,2-Dihydroxy-ethyl)-6-(4′-fluoro-biphenyl-4-yl)pyridine-2-carboxylic acid amide]",1.12 ± 0.07 µM
12,"C[C@H](O)[C@@H](O)c1cc(C(N)=O)nc(-c2ccc(Oc3ccc(F)cc3)cc2)c1 [compound 129, 4-((1S,2S)-1,2-dihydroxypropyl)-6-(4-(4-fluorophenoxy)phenyl)picolinamide]",1.74 ± 0.35 µM
13,"O=S(=O)(Nc1ccc(-c2cccc([C@H](O)CO)n2)cc1)c1ccc(F)cc1 [compound 137, (S)-N-(4-(6-(1,2-dihydroxyethyl)pyridin-2-yl)phenyl)-4-fluorobenzene sulfonamide]",> 20 µM
14,"N#Cc1cc(C(F)(F)F)ccc1Oc1ccc(-c2cccc(C(O)CO)n2)cc1 (centres unmarked) [compound 10, 2-(4-(6-(1,2-dihydroxyethyl)pyridin-2-yl)phenoxy)-5-(trifluoromethyl) benzonitrile]",0.52 ± 0.11 µM
15,"NC(=O)c1cc(NC(=O)NCC(=O)O)cc(-c2ccc(Oc3ccc(F)cc3)cc2)n1 [compound 87, 2-(3-(2-carbamoyl-6-(4-(4-fluorophenoxy)phenyl)pyridin-4-yl)ureido)acetic acid]",> 20 µM
16,"NC(=O)c1cc(-c2ccc(Oc3ccc(F)cc3)cc2)cc(N(CCc2nn[nH]n2)c2ccccc2)n1 [compound 151, 4-[4-(4-Fluoro-phenoxy)-phenyl]-6-{phenyl-[2-(2H-tetrazol-5-yl)-ethyl]-amino}-pyridine-2-carboxylic acid amide]",0.16 ± 0.03 µM
17,"O=C(O)CN(c1ccccc1)c1cc(C(=O)O)nc(-c2ccc(Oc3ccc(F)cc3)cc2)c1 [compound 92, 4-((carboxymethyl) (phenyl)amino)-6-(4-(4-fluorophenoxy)phenyl)picolinic acid]",3.83 ± 0.64 µM
18,"NC(=O)c1cc(N2CCNCC2)cc(-c2ccc(Oc3ccc(F)cc3)cc2)n1 [compound 55, 6-(4-(4-fluorophenoxy)phenyl)-4-(piperazin-1-yl) picolinamide]",0.23 ± 0.06 µM
19,"N#Cc1cccc2c1ccn2-c1cc(-c2ccc(Oc3ccc(F)cc3)cc2)cc(C(=O)O)n1 [compound 126, 6-(4-cyano-1H-indol-1-yl)-4-(4-(4-fluorophenoxy)phenyl) picolinic acid]",1.05 ± 0.13 µM
20,"NC(=O)c1cc([C@@H](O)CO)cc(-c2ccc(Oc3ccc(Cl)cc3F)cc2)n1 [compound 141, (R)-6-(4-(4-chloro-2-fluorophenoxy)phenyl)-4-(1,2-dihydroxyethyl) picolinamide]",0.07 ± 0.01 µM
21,"N#Cc1cc(Oc2ccc(-c3cc([C@H](O)CO)cc(C(N)=O)n3)cc2)ccc1C(F)(F)F [compound 33, (S)-6-(4-(3-cyano-4-(trifluoromethyl)phenoxy)phenyl)-4-(1,2-dihydroxyethyl) picolinamide]",0.5 ± 0.07 µM
22,"NC(=O)c1cc(N2CCC(C(N)=O)CC2)cc(-c2ccc(Oc3ccc(F)cc3)cc2)n1 [compound 56, 4-(4-carbamoylpiperidin-1-yl)-6-(4-(4-fluorophenoxy)phenyl) picolinamide]",0.31 ± 0.05 µM
23,"O=C(O)c1cc(N(CCc2nn[nH]n2)c2ccccc2)cc(-c2ccc(Oc3ccc(F)cc3)cc2)n1 [compound 152, 6-[4-(4-Fluoro-phenoxy)-phenyl]-4-{phenyl-[2-(2H-tetrazol-5-yl)ethyl]-amino}-pyridine-2-carboxylic acid]",1.87 ± 0.68 µM
24,"NC(=O)c1cc(NC(=O)Nc2ccccc2)cc(-c2ccc(Oc3ccc(F)cc3)cc2)n1 [compound 84, 6-(4-(4-fluorophenoxy)phenyl)-4-(3-phenylureido) picolinamide]",4.11 ± 0.93 µM

# Tested on: neuropathic hyperalgesia in rats
# Assay: Seltzer model (partial sciatic nerve ligation) of neuropathic pain, paw withdrawal threshold
# Type: in vivo
# Details: 30 mg/kg p.o., rat, Seltzer model; assessed 1, 3 and 5 h after administration
# Experimental: Test Animals: Each experiment uses rats weighing between 200-260 g at the start of the experiment. The rats are group-housed and have free access to food and water at all times, except prior to oral administration of a test compound when food is removed for 16 hours before dosing. A control group acts as a comparison to rats treated with a compound of Formulae I-XXXIII. The control group is administered the carrier as used for the test compound. The volume of carrier administered to the control group is the same as the volume of carrier and test compound administered to the test group.
# In the Seltzer model, the partial sciatic nerve ligation model of neuropathic pain was used to produce neuropathic hyperalgesia in rats (Seltzer et al., Pain 43:205-218 (1990)). Partial ligation of the left sciatic nerve was performed under inhalation anesthesia, e.g., isoflurane/O2. Following induction of anesthesia, the left thigh of the rat was shaved and the sciatic nerve exposed at high thigh level through a small incision and was carefully cleared of surrounding connective tissues at a site near the trocanther just distal to the point at which the posterior biceps semitendinosus nerve branches off of the common sciatic nerve. A 7-0 silk suture was inserted into the nerve, e.g., with a ⅜ curved, reversed-cutting mini-needle, and tightly ligated so that the dorsal ⅓ to ½ of the nerve thickness was held within the ligature. The wound was closed, e.g., with a single muscle suture (4-0 nylon (Vicryl)) and vetbond tissue glue. Following surgery, the wound area was dusted with antibiotic powder. Sham-treated rats undergo an identical surgical procedure except that the sciatic nerve is not manipulated. Following surgery, animals were weighed and placed on a warm pad until they recovered from anesthesia. Animals were then returned to their home cages until behavioral testing began. The animals were assessed for response to noxious mechanical stimuli by determining PWT, as described below, prior to surgery (baseline), then immediately prior to and 1, 3, and 5 hours after drug administration for rear paw of the animal. Percentage reversal of neuropathic hyperalgesia is defined as: […]
# The following compounds were tested and produced a statistically significant increase in paw withdrawal threshold when administered at 30 mg/kg p.o. in the Seltzer model of neuropathic pain at the time points indicated:
# Mechanical Hyperalgesia: Sensitivity to noxious mechanical stimuli can be measured in animals using the paw pressure test to assess mechanical hyperalgesia. In rats, hind paw withdrawal thresholds (“PWT”), measured in grams, in response to a noxious mechanical stimulus are determined using an analgesymeter (Model 7200, commercially available from Ugo Basile of Italy), as described in Stein (Biochemistry & Behavior 31: 451-455 (1988)). The rat's paw is placed on a small platform, and weight is applied in a graded manner up to a maximum of 250 grams. The endpoint is taken as the weight at which the paw is completely withdrawn. PWT is determined once for each rat at each time point. PWT can be measured only in the injured paw, or in both the injured and non-injured paw. In one non-limiting embodiment, mechanical hyperalgesia associated with nerve injury induced pain (neuropathic pain) can be assessed in rats. Rats are tested prior to surgery to determine a baseline, or normal, PWT. Rats are tested again 2 to 3 weeks post-surgery, prior to, and at different times after (e.g. 1, 3, 5 and 24 hr) drug administration.
row,Compound,Time post-dose (h) with statistically significant increase in paw withdrawal threshold
1,"NC(=O)c1cc([C@H](O)CO)cc(-c2ccc(Oc3ccc(C(F)(F)F)cc3)cc2)n1 [compound 30, (S)-4-(1,2-dihydroxyethyl)-6-(4-(4-(trifluoromethyl)phenoxy)phenyl) picolinamide]",1 h
2,"NC(=O)c1cc([C@@H](O)CO)cc(-c2ccc(Oc3ccc(F)cc3)cc2)n1 [compound 40, (R)-4-(1,2-dihydroxyethyl)-6-(4-(4-fluorophenoxy)phenyl)picolinamide]",1 h

# — patent US9056832B2, “Pyridine compounds and the users thereof” (Purdue Pharma L.P., priority 2010, dated 2015)
